Source: US20170027896A1, “METHODS AND COMPOSITIONS FOR THE TREATMENT OF VASCULAR MALFORMATION” (IFOM - FONDAZIONE ISTITUTO FIRC DI ONCOLOGIA MOLECOLARE, priority 2014, published 2017)
“Also recorded” adds a separate entry of the source.

B1: VE-cadherin (other, mouse, UniProt P55284 46-784, looked up)
chain: DWIWNQMHIDEEKNESLPHYVGKIKSNVNRQNAKYVLQGEFAGKIFGVDANTGNVLAYERLDREKVSEYFLTALIVDKNTNKNLEQPSSFTVKVHDINDNWPVFSHQVFNASVPEMSAIGTSVIRVTAVDADDPTVAGHATVLYQIVKGNEYFSIDNSGLIFTKIKNLDREKQAEYKIVVETQDALGLRGESGTATVMIRLEDINDNFPVFTQSTYTFSVPEDIRVGKPLGFLTVVDPDEPQNRMTKYSIMQGEYRDTFTIETDPKRNEGIIKPTKSLDYEVIQQYTFYIEATDPTIRYEYLSSTSGKNKAMVTINVLDVDEPPVFQRHFYHFKLPENQKKPLIGTVVAKDPDKAQRSIGYSIRKTSDRGQFFRITKQGNIYNEKELDRETYAWYNLTVEANELDSRGNPVGKESIVQVYIEVLDENDNPPEFAQPYEPKVCENAAQGKLVVQISATDKDVVPVNPKFKFALKNEDSNFTLINNHDNTANITVKYGQFNREHAKFHYLPVLISDNGVPSLTGTSTLTVGVCKCNEQGEFTFCEEMAAQAGVSIQALVAIFLCILTITVITLLIILRRRIRKQAHAHSKSALEIHEQLVTYDEEGGGEMDTTSYDVSVLNSVRGGSTKPLRSTMDARPAVYTQVQKPPRLAPGLHGGPREMATMIDVKKEEADNDGGGPPYDTLHIYGYEGAESIAESLSSLSTNSSDSDIDYDFLNDWGPRFKMLAELYGSDPQEELII
notes: Endogenous protein immunoprecipitated from endothelial cell extracts with VE-cadherin antibodies (IP: VE); also called Cdh5
B3: b-catenin (other, mouse, UniProt Q02248 2-781, looked up)
chain: ATQADLMELDMAMEPDRKAAVSHWQQQSYLDSGIHSGATTTAPSLSGKGNPEEEDVDTSQVLYEWEQGFSQSFTQEQVADIDGQYAMTRAQRVRAAMFPETLDEGMQIPSTQFDAAHPTNVQRLAEPSQMLKHAVVNLINYQDDAELATRAIPELTKLLNDEDQVVVNKAAVMVHQLSKKEASRHAIMRSPQMVSAIVRTMQNTNDVETARCTAGTLHNLSHHREGLLAIFKSGGIPALVKMLGSPVDSVLFYAITTLHNLLLHQEGAKMAVRLAGGLQKMVALLNKTNVKFLAITTDCLQILAYGNQESKLIILASGGPQALVNIMRTYTYEKLLWTTSRVLKVLSVCSSNKPAIVEAGGMQALGLHLTDPSQRLVQNCLWTLRNLSDAATKQEGMEGLLGTLVQLLGSDDINVVTCAAGILSNLTCNNYKNKMMVCQVGGIEALVRTVLRAGDREDITEPAICALRHLTSRHQEAEMAQNAVRLHYGLPVVVKLLHPPSHWPLIKATVGLIRNLALCPANHAPLREQGAIPRLVQLLVRAHQDTQRRTSMGGTQQQFVEGVRMEEIVEGCTGALHILARDVHNRIVIRGLNTIPLFVQLLYSPIENIQRVAAGVLCELAQDKEAAEAIEAEGATAPLTELLHSRNEGVATYAAAVLFRMSEDKPQDYKKRLSVELTSSLFRTEPMAWNETADLGLDIGAQGEALGYRQDDPSYRSFHSGGYGQDALGMDPMMEHEMGGHHPGADYPVDGLPDLGHAQDLMDGLPPGDSNQLAWFDTDL
notes: Endogenous protein in total cell extracts, co-immunoprecipitated with VE-cadherin antibodies; also called beta-catenin; β-catenin

Experiments:
[1] = test system: CCM3-knockout (KO) endothelial cells; assay: Axin2 and S100a4 transcription in un-stimulated CCM3-knockout endothelial cells treated with Wnt pathway inhibitors; assay type: cell-based, mouse; conditions: 48 h, IWP2, IWP12 0.5, 2, 5 DM, Dkk1 0.5 uM
Protocol: (§1) Drugs were added to confluent cells for 48 h before the indicated assays. Final concentrations for IWP2 and IWP12, both from Sigma-Aldrich, were: 0.5, 2, 5 DM. Drugs were dissolved in DMSO, control treatment (Vehicle) was 0.1% DMSO final concentration, as for drug treatment. Murine recombinant Dkk1 (R&D) was 0.5 DM on cells.
(§2) RNA extraction was performed with RNeasy kits (74106; […]). The RNA (1 μg) was reverse transcribed with random hexamers (High Capacity cDNA Archive kits; Applied Biosystems). The cDNA was amplified with TaqMan gene expression assays (Applied Biosystems) using a 7900 HT thermocycler (ABI/Prism). For each sample, the expression levels were determined with the comparative threshold cycle (Ct) method, and normalized to the housekeeping genes encoding 18S and glyceraldehyde-3-phosphate dehydrogenase (GAPDH). For amplification, the following probes (Applied Biosystems) that have been validated to recognize the mouse transcripts in rtPCR were used: Axin2, Nkd1, Lef1, ccnd1, cMyc-Klf4, Ly6a, S100a4, Id1, Cdh2, Acta2, CD44. The probes to identify the CCM3 mRNA transcript were custom designed, as: forward, […] (SEQ ID No. 12); reverse, GCTCTGGCCGCTCAATCA (SEQ ID No. 13); reporter sequence, […] (SEQ ID No. 14).

[2] = test system: CCM3-knockout endothelial cell line; assay: rtPCR of b-catenin target gene and progenitor/EndMT markers in CCM3-knockout endothelial cell line; assay type: cell-based, mouse; conditions: 48 h; 135 mM sulindac sulfide, 125 mM sulindac sulfone, 200 mM silibinin, 250 mM salinomycin
Protocol: In some experiments, endothelial cell lines from the lungs of CCM3-flox/flox mice (8-10 weeks old) were immortalized in culture through retroviral expression of polyoma middle T gene^60. […] These cells were then maintained in culture for up to 25 passages without detectable changes in the effects of this CCM3 ablation.
Drugs were added to confluent cells for 48 h before the indicated assays. The final concentrations used were: […] (all from Sigma-Aldrich). As all of these were dissolved in DMSO, control treatment (vehicle) was 0.1% DMSO final concentration, as for drug treatment.
as §2

[3] = test system: wild-type endothelial cells; assay: Wnt3a stimulation of stem-cell/EndMT marker expression in wild-type endothelial cells; assay type: cell-based, mouse; conditions: acute stimulation (48 h); 5 ng/ml
Protocol: as §1, §2

b-catenin = molecular target: B3; assay: co-immunoprecipitation with VE-cadherin antibodies and Western blot, murine endothelial cell line extracts
[4] = test system: Wnt3a-induced stimulation of Axin2; assay: Wnt3a-induced stimulation of Axin2 in wild-type and CCM3-knockout endothelial cell lines; assay type: cell-based, mouse; conditions: Dkk1 0.5 uM
Protocol: as §1, §2

VE-cadherin = molecular target: B1; assay: co-immunoprecipitation with VE-cadherin antibodies and Western blot, bands quantified with ImageJ, mean of three experiments; vehicle-KO versus vehicle-WT
Source text: Active b-catenin and VE-cadherin were lost from cell-cell contacts (adherens junctions) in these CCM3-knockout endothelial cells (top main panels, XY axis; small lower panels, Z projection along X axis). The active b-catenin (KO vehicle, arrowheads) is concentrated into the nucleus (see corresponding arrowheads in DAPI stainings) (right panels). Treatment with sulindac sulfide restored the distribution of active b-catenin to the adherens junctions (right panels, sulindac sulfide, arrowheads, and small lower right panels, sulindac sulfide, small arrowheads, for distribution along Z axis) and co-localization of active b-catenin and VE-cadherin is observed (arrowheads). […] Podocalyxin is re-localized from the apical surface (left panels, WT, arrows) to be ectopically distributed on the basal side with CCM3 knockout (right panel, vehicle, arrowheads), as it has been reported for CCM1 knockout⁴⁶. Nuclei are outlined by white lines (DAPI). Sulindac sulfide re-establishes the correct apical distribution of podocalyxin (right panel, sulindac sulfide, arrows). Scale bar, […]. c. Representative Western blotting (top) and quantification (bottom) of the effects of sulindac sulfide on the co-immunoprecipitation complex of b-catenin and VE-cadherin. […] The quantification of the bands from the Western blotting was assessed as the means of three independent experiments, using ImageJ. d.

Molecule: Cc1ccc2nc(NC(=O)CSc3nc4c(c(=O)n3-c3ccccc3)SCC4)sc2c1 [IWP2]
- b-catenin-driven activation of Axin2 and S100a4 transcription [1]: not inhibited; also recorded: did not inhibit

Molecule: Cc1ccc2nc(NC(=O)CSc3nc4c(c(=O)n3C)SC(C)C4)sc2c1 (centres unmarked) [IWP12]
- b-catenin-driven activation of Axin2 and S100a4 transcription [1]: not inhibited; also recorded: did not inhibit

Molecule: CC[C@@H](C(=O)[C@@H](C)[C@@H](O)[C@H](C)[C@@H]1O[C@@H]([C@@H](CC)C(=O)O)CC[C@@H]1C)[C@H]1O[C@]2(C=C[C@@H](O)[C@]3(CC[C@@](C)([C@H]4CC[C@](O)(CC)[C@H](C)O4)O3)O2)[C@H](C)C[C@@H]1C [salinomycin]
- inhibition of transcription of Axin2, Klf4 and S100a4 (rtPCR) [2]: significantly reduced only Axin2 and S100a4

Molecule: Wnt3a
- induction of expression of stem-cell/EndMT markers [3]: cannot induce; also recorded: did not induce

Molecule: B1
- binding result (b-catenin): binds

B2: Dkk1: murine recombinant Dkk1, competitor of Wnt co-receptor Lrp5/6 (protein)
chain: TLNSVLINSNAIKNLPPPLGGAGGQPGSAVSVAPGVLYEGGNKYQTLDNYQPYPCAEDEECGSDEYCSSPSRGAAGVGGVQICLACRKRRKRCMRHAMCCPGNYCKNGICMPSDHSHFPRGEIEESIIENLGNDHNAAAGDGYPRRTTLTSKIYHTKGQEGSVCLRSSDCAAGLCCARHFWSKICKPVLKEGQVCTKHKRKGSHGLEIFQRCYCGEGLACRIQKDHHQASNSSRLHTCQRH
- b-catenin-driven activation of Axin2 and S100a4 transcription [1]: not inhibited; also recorded: did not inhibit
- Wnt3a-induced stimulation of Axin2 [4]: effectively inhibited

Molecule: B3
- reduction of the b-catenin/VE-cadherin co-immunoprecipitation ratio in CCM3-knockout versus wild-type cells (VE-cadherin): 35%
